One may read the pEC50 as the negative decadic logarithm of the EC50, by convention in mol/L. As a reminder, the EC70 is the point of the concentration-response curve where the effect stands at 70%.

For series [1], the target named is T1, aryl hydrocarbon receptor (AhR) (Rattus norvegicus, UniProt P41738).
T1 construct: endogenous in cells; host or cells: H4L7.5c2, H4L1.1c4 and DR-CALUX (H4L1.1c10, H4IIe-based) recombinant rat hepatoma cells
T1 sequence (P41738 10-853): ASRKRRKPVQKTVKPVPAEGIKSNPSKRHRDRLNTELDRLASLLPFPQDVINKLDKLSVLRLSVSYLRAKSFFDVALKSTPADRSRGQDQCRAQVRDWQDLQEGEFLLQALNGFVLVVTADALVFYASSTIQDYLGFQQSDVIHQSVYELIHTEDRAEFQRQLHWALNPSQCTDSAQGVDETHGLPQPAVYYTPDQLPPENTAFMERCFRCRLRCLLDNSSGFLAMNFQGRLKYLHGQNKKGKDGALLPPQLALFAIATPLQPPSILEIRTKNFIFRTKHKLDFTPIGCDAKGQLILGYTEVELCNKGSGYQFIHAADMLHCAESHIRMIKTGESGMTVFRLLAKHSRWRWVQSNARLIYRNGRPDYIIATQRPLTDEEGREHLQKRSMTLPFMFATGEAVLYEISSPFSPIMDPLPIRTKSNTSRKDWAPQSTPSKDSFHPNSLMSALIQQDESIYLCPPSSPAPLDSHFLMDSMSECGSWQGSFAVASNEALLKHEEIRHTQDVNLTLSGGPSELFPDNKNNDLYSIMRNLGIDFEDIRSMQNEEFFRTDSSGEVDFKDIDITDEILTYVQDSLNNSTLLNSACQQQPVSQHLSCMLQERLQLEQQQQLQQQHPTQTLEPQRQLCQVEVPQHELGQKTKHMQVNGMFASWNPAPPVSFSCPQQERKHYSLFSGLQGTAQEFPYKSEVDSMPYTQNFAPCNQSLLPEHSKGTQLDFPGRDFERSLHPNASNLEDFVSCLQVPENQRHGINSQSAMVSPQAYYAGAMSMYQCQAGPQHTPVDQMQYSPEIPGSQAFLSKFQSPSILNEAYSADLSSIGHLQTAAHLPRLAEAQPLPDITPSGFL
Nature of the series: CALUX luciferase reporter bioassay, H4L7.5c2 rat hepatoma cells (20 DREs). It counts as cell-based. An excerpt: (§1) A “3rd generation” H4L7.5c2 recombinant rat hepatoma CALUX cell line that contains a stably transfected AhR-responsive firefly luciferase reporter gene under control of 20 dioxin responsive elements (DREs) was utilized in this study. […] H4L7.5c2 rat and other CALUX cell lines, such as H4L1.1c4 rat and […] mouse hepatoma cells (each with 4 DREs), or “3rd generation” H1L7.5c3 mouse hepatoma cells (20 DREs), are freely available for non-profit research purposes and can be obtained from Prof. Denison. These cells are also available for commercial and government screening purposes through a licensing agreement with the Hiyoshi Corporation, Omihachiman, Japan (www.calux-jp.com/english/).
Exposure of H4L7.5c2 rat cells to dioxins, dioxin-like compounds, and other AhR agonists results in induction of luciferase reporter gene expression in a time-, concentration-, AhR-, and chemical-specific manner. The AhR signal transduction pathway in the CALUX bioassay and the molecular mechanism of activation of gene expression by 2,3,7,8-TCDD and related AhR agonists have been described in detail elsewhere. The level of luciferase expression in CALUX cell lines is directly related to the overall concentration of added AhR activators.
H4L7.5c2 rat cells of defined sub-confluent density (60–70%) were harvested with trypsin and homogeneously suspended in cell culture medium (α-MEM) containing 10% (v/v) FBS. Cells were counted in a haemocytometer, then seeded in 96-well white clear bottom culture plates (Corning, New York, USA) at approximately 25,000 cells/well. After 1 h of pre-incubation at ambient conditions in a biosafety cabinet, the cells were grown for 20–24 h at 37 °C in the presence of 5% CO2.
Individual concentrations of a 2,3,7,8-TCDD-standard dilution series (generating assay concentrations of 0.0, 0.1, 0.3, 1.0, 3.0, 10, 30, 300, and 3000 pmol/L) and the sample extracts (both in DMSO) were first added to incubation medium and mixed, and the mixtures subsequently added in triplicate to 96-well plates containing H4L7.5c2 cells. The ability of the bioassay target compounds to adhere to the walls and bottom of the wells can lead to cells in individual wells of a triplicate being dosed with slightly different amounts of AhR-active compounds, leading to increased triplicate RSD values. Well-to-well variability of the cell response also further depends on edge effects commonly observed across 96-well microplates. For a given cell system, inhomogeneous dosing of triplicates and edge effects are some of the main drivers for the assay working range, within which triplicate RSD values are subject to defined limitations (RSD < 15%). Especially, its bottom end should be as low as possible for the present application. Each batch of plates was therefore pre-tested for satisfactorily low and reproducible edge effects. The latter was further reduced by a 1 h pre-incubation under ambient conditions in the safety cabinet immediately after seeding the cells, resulting in an even distribution of the cells in each well. The plates were then placed in an incubator on a 1.5 mm-thin copper sheet on top of the incubator shelf. Copper not only has bactericidal properties, but being a fast heat conductor, it also helps to avoid the formation of patterns in the measured cell response (another type of "edge effects"), caused by temperature gradients near heat-radiating walls or by occasional opening of the incubator door. For preparing the dose media, we applied a validated, fast, and reproducible pipetting procedure followed by thorough re-mixing immediately before dosing the cells only into the inner 60 wells of 96-well plates. Cell culture medium was added to the cells in the 36 outer wells to maintain a balanced atmosphere above all wells allowing homogeneous evaporation rates across the plate during incubation. […]
In general terms: A reporter such as luciferase makes a cellular process visible.

Series [2] addresses T2, aryl hydrocarbon receptor (AhR) (Mus musculus, UniProt P30561). Nature of the series: CALUX luciferase reporter bioassay, H1L6.1c2 mouse hepatoma cells (4 DREs). It counts as cell-based. The following applies: H1L6.1c2 mouse (4 DREs). The text has this: (§2) We compared both key indicators of assay performance, calibrator bias and imprecision, and the resulting working range for H4L7.5c2 rat hepatoma cells (this study) with those obtained using various other cell lines (4 DREs: H4L1.1c4 rat, DR-CALUX rat, H1L6.1c2 mouse hepatoma cells; 20 DREs: H1L7.5c3 mouse hepatoma cells) previously evaluated (Table 2). Commercially available DR-CALUX cells, a recombinant rat hepatoma (H4IIe)-based cell line (H4L1.1c10), were obtained from BioDetection Systems (The Netherlands). When using CALUX cell lines that contain 4 DREs, the lower limit of working range (LLOW), or the concentration above which results may be reported, is typically close to 1 pmol/L if both RLU-based and concentration-based criteria for bias and imprecision are fulfilled (assay working range B in Table 2). […] When utilizing H1L7.5c3 mouse hepatoma cells, which also contain 20 DREs, the LLOW equals 0.3 pmol/L, as well. However, the range in which assay concentrations match all criteria for bias and imprecision is smaller with an upper limit of working range (ULOW) of just 10 pmol/L. It follows that the “3rd generation” H4L7.5c2 rat hepatoma cells provide the most suitable working range of the assay for low sample concentrations, regardless of whether only the current EU RLU-based imprecision requirements are met or whether bias-related and concentration-based criteria are additionally observed (Table 2).
(§3) While absolute induction is driven by the efficiency of gene expression, fold induction is the ratio between the cell response (RLU) induced by a calibration standard, or by AhR-active dioxin-like compounds present in a sample extract, and the unspecific assay background response (RLU). […] Furthermore, the Chi-square-to-degrees of freedom ratio (χ^2/DF, with χ^2 ~ WSSR) known to be a stand-alone index characterizing the quality of a model fit is provided for each cell line. […] The latter is the case for each cell line (Table 3). […] An explanation can be found in the fact that triplicate standard deviations were used as rough estimates.

The target of series [3] is T1, aryl hydrocarbon receptor (AhR). Nature of the series: DR-CALUX luciferase reporter bioassay, recombinant rat hepatoma (H4IIe)-based cells (4 DREs). Type of series: cell-based. The following applies: DR-CALUX rat (4 DREs).
Source text: as §2, §3

The target is the same in series [4]. Nature of the series: CALUX luciferase reporter bioassay, H4L1.1c4 rat hepatoma cells (4 DREs). The note with it: H4L1.1c4 rat (4 DREs). It counts as cell-based.
Source text: as §1, §2, §3

On the set-up of series [5]: method as in PMID 15083163. The note with it: adult humans; cited from earlier work.
For series [6], the target named is T2, aryl hydrocarbon receptor (AhR). Nature of the series: CALUX luciferase reporter bioassay, H1L7.5c3 mouse hepatoma cells (20 DREs). It counts as cell-based. The note with it: H1L7.5c3 mouse (20 DREs).
Source text: as §1, §2, §3

Series [7] relates to aryl hydrocarbon receptor (AhR). Also noted: method as in PMID 33614386, PMID 18969555, PMID 18969548. The note with it: CALUX; relative to 2,3,7,8-TCDD; cited from earlier work.
Setting [8] is: H4L7.5c2 rat (20 DREs), 5-PL fit by WSSR regression.

pEC50: −log10 of the molar value.

T2 sequence (P30561 10-848): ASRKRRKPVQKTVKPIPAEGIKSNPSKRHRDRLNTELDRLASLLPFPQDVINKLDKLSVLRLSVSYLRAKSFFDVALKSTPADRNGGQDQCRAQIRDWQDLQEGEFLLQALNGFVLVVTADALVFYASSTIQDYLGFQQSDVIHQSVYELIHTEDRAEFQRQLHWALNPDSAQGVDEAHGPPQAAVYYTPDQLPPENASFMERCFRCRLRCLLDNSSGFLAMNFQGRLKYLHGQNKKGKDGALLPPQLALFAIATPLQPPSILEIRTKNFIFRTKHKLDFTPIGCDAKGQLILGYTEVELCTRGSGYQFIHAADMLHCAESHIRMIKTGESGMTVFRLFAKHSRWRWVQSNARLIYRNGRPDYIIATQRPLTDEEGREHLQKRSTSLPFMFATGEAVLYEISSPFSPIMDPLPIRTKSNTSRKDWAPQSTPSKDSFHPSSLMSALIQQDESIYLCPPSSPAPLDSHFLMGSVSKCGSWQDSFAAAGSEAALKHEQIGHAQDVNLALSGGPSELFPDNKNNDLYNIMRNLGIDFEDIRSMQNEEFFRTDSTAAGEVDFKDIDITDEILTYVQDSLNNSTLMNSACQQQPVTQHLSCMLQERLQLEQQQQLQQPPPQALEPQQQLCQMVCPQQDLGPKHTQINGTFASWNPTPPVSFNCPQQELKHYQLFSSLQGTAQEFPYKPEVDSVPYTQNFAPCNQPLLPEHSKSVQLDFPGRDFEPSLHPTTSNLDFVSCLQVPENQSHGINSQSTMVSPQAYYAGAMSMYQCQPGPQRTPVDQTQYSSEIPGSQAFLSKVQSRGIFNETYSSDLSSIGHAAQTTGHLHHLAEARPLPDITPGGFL
T2 sequence (P53762 2-791 partner): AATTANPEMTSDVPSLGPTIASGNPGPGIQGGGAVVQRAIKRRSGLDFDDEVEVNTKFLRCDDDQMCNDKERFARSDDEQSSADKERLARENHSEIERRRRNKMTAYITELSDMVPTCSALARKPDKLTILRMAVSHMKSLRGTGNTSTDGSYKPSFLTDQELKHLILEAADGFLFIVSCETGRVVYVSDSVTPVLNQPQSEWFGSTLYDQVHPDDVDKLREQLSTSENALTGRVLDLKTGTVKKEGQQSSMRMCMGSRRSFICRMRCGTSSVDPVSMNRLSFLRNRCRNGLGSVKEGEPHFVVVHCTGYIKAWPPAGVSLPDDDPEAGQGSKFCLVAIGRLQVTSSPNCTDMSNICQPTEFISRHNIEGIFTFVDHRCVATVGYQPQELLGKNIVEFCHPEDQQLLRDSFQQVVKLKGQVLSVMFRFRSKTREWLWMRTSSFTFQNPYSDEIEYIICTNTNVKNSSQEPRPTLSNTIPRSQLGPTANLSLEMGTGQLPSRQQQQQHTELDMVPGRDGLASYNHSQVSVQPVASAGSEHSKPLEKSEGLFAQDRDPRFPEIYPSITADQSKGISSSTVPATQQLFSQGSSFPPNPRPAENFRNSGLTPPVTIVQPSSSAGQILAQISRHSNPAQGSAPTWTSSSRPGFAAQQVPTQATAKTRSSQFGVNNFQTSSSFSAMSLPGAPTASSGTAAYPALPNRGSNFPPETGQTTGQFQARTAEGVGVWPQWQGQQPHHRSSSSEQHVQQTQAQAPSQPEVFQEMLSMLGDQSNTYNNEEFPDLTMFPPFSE

For the compound `Clc1cc2c(cc1Cl)Oc1cc(Cl)c(Cl)cc1O2` [2,3,7,8-TCDD, 2,3,7,8-tetrachlorodibenzo-p-dioxin], the “Fold induction at 0.3 pmol/L” value in series [1] (H4L7.5c2 rat (20 DREs), 0.3 pmol/L) amounted to 1.46; in series [2] (0.3 pmol/L), 1.12; in series [3] (0.3 pmol/L), 1.16; in series [4] (0.3 pmol/L), 1.33; in series [6] (0.3 pmol/L), 1.10. The “Fold induction at 1.0 pmol/L” value was found to be 4.47 in series [1] (H4L7.5c2 rat (20 DREs), 1.0 pmol/L); 1.56 in series [2] (1.0 pmol/L); 1.53 in series [3] (1.0 pmol/L); 2.44 in series [4] (1.0 pmol/L); 1.62 in series [6] (1.0 pmol/L). The “Asymmetry factor (e)” value in series [1] (H4L7.5c2 rat (20 DREs), 5-PL fit) was 1.51; in series [2] (5-PL fit), 1.42; in series [3] (5-PL fit), 0.63; in series [4] (5-PL fit), 1.81; in series [6] (5-PL fit) it was 1.15. The pEC50 is 10.94 in series [1] (setting [8]); 10.63 in series [2] (H1L6.1c2 mouse hepatoma CALUX cells (4 DREs), 5-PL fit by WSSR regression); 11.10 in series [3] (5-PL fit by WSSR regression); 11.26 in series [4] (5-PL fit by WSSR regression); 11.28 in series [6] (H1L7.5c3 mouse hepatoma CALUX cells (20 DREs), 5-PL fit by WSSR regression). In addition, the EC70 in series [1] (setting [8]) came to 22.3 pM; in series [2] (5-PL fit by WSSR regression) it was 50.5 pM; in series [3] (5-PL fit by WSSR regression) it was 14.0 pM; in series [4] (5-PL fit by WSSR regression) it was 19.8 pM; in series [6] (5-PL fit by WSSR regression), 9.21 pM. The “Inflection point (c)” value in series [1] (setting [8]) came out at 7.22 pmol/L; in series [2] (5-PL fit by WSSR regression), 15.0 pmol/L; in series [3] (5-PL fit by WSSR regression), 12.0 pmol/L; in series [4] (5-PL fit by WSSR regression) it was 3.67 pmol/L; in series [6] (5-PL fit by WSSR regression), 4.63 pmol/L. Further, the Maximum fold induction came out at 136 in series [1] (setting [8]); 31.2 in series [2] (5-PL fit by WSSR regression); 8.75 in series [3] (5-PL fit by WSSR regression); 20.6 in series [4] (5-PL fit by WSSR regression); 10.5 in series [6] (5-PL fit by WSSR regression). Further, the “Slope (b)” value was 1.17 in series [1] (H4L7.5c2 rat (20 DREs), Hill coefficient of 5-PL fit); 1.03 in series [2] (Hill coefficient of 5-PL fit); 1.70 in series [3] (Hill coefficient of 5-PL fit); 0.90 in series [4] (Hill coefficient of 5-PL fit); 1.48 in series [6] (Hill coefficient of 5-PL fit). In series [1] (H4L7.5c2 rat hepatoma cells, corrected for the assay background response, 5-PL fit), this compound yielded a Maximum response of 4730 RLUs. Further, in series [5], the half-life is listed as 3 to 10 years.

For the compound `Clc1ccc(-c2cc(Cl)c(Cl)c(Cl)c2)cc1Cl` [PCB 126], the “Relative potency (REP) or response of the cell bioassay compared to the response to 2,3,7,8-TCDD” value in series [7] is “approximately 40%”.

The values are drawn from PMC7973644, “Bioanalytical screening of low levels of dioxins and dioxin-like PCBs in pig meat (pork) for checking compliance with EU maximum and action levels using highly sensitive “third generation” recombinant H4L7.5c2 rat hepatoma cells” (Environmental Sciences Europe, 2021).
